Measured values: ChEMBL document CHEMBL5038669, “Development of the First Covalent Monopolar Spindle Kinase 1 (MPS1/TTK) Inhibitor” (J Med Chem, 2022)
Activity calls are given as the source filed them. The calls are words filed in the database; no cut-off is given here.

Tests used:
[1] = target: T1, Dual specificity protein kinase TTK (Homo sapiens) (UniProt P33981); experiment: Displacement of tracer K9 from NanoLuc-fused MPS1 (unknown origin) expressed in HEK293T cells at 10 fold IC50 preincubated for 2 hrs followed by compound washout by NanoBRET assay; assay type: cell-based
T1 sequence (whole entry): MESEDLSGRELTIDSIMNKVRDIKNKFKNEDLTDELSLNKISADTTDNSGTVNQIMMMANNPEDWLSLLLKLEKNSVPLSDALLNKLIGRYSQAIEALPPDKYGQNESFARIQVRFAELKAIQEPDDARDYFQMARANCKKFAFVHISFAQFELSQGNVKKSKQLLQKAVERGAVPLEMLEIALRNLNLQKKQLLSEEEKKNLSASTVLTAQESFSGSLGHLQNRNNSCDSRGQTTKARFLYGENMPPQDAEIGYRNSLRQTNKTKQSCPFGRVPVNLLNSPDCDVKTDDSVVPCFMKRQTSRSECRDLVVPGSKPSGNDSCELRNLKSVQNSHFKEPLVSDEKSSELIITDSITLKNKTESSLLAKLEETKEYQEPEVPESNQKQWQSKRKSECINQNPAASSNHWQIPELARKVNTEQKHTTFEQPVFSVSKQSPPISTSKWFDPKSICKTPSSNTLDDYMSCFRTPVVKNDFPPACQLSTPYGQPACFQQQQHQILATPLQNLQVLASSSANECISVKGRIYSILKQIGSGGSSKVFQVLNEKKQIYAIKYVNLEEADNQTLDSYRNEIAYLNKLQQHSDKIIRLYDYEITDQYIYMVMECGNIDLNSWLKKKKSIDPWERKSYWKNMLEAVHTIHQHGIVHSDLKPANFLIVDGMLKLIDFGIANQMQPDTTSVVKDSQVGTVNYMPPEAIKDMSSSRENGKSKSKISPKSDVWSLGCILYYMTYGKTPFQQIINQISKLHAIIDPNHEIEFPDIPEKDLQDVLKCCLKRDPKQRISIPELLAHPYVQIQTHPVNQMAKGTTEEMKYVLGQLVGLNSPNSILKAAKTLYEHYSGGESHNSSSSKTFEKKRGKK

[2] = target: T2, Serine/threonine-protein kinase 17B (Homo sapiens) (UniProt O94768); details: dose 10.0 µM
T2 sequence (whole entry): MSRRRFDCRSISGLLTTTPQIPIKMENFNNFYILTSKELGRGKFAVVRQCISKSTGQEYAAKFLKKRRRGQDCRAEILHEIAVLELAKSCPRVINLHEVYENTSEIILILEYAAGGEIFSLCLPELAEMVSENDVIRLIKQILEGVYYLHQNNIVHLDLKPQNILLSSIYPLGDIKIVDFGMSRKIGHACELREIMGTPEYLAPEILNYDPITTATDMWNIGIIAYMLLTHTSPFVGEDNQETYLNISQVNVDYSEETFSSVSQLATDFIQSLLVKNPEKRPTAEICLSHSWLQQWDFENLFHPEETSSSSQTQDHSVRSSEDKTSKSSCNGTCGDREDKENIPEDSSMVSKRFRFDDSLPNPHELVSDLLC

[3] = target: Cyclin-G-associated kinase (Homo sapiens) (UniProt O14976); experiment: Binding affinity to human GAK assessed as thermal stability by measuring melting temperature 10 uM by differential scanning fluorimetry
Chain of Cyclin-G-associated kinase (Homo sapiens) (O14976 whole entry): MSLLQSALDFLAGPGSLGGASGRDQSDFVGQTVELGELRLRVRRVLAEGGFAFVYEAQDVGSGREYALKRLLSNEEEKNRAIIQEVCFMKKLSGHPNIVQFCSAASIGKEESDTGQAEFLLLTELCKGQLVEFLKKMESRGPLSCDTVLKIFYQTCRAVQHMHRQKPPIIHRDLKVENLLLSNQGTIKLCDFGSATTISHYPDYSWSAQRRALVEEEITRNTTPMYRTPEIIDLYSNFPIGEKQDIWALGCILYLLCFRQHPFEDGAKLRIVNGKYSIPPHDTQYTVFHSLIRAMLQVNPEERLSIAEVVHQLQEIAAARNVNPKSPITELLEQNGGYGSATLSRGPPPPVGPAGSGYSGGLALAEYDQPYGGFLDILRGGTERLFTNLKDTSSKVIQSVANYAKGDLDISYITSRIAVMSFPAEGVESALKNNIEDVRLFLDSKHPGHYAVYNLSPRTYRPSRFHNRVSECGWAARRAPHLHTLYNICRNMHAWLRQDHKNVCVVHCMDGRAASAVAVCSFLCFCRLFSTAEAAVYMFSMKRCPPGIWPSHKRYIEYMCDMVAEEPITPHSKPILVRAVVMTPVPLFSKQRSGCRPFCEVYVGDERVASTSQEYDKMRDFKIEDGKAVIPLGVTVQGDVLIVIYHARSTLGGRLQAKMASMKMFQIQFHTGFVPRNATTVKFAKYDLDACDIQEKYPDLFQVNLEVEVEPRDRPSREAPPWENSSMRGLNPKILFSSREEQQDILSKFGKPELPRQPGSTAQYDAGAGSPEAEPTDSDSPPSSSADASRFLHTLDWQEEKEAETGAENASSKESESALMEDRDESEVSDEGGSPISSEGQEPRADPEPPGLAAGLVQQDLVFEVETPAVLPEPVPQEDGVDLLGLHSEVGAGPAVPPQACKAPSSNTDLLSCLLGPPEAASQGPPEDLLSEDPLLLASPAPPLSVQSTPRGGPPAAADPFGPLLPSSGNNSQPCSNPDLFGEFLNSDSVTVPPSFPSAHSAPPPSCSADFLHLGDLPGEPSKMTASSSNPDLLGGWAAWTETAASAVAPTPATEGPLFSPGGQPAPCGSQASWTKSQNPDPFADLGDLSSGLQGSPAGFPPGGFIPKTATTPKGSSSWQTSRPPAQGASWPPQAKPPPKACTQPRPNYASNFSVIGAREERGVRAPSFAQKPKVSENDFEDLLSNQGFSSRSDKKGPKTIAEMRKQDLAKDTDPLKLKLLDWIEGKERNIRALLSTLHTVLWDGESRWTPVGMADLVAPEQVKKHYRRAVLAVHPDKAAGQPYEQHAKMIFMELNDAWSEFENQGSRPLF

| Activity [1] | ΔTm [2] | ΔTm [3] | Structure (SMILES) |
| --- | --- | --- | --- |
| inactive | 11.5 °C | – | COc1cc(OC2CCN(C)CC2)ccc1Nc1ncc2c(n1)n(C1CCCC1)c(=O)n2C |
| – | 21.6 °C | 13.2 °C | CCc1cccc(CC)c1NC(=O)c1ccn2c1CCc1cnc(Nc3ccc(N4CCN(C)CC4)cc3OC)nc1-2 |
| – | 19.1 °C | – | COc1ccc(Oc2cc(NCCC(F)(F)F)c3ncc(-c4ccc(C(=O)NC5CC5)c(C)c4)n3n2)c(F)c1F |
